Source: paper PMC5543065, “Mechanistic and structural basis for activation of cardiac myosin force production by omecamtiv mecarbil” (Nature Communications, 2017)

Target: T1, bovine β-cardiac myosin S1 fragment (cardiac myosin, MYH7) (Bos taurus, UniProt Q9BE39)
T1 construct: Subfragment-1 (S1), AA 1–840; with MYL3 (Uniprot P85100)
Experiment: ITC; crystal structure at […] Å; SAXS
Type: binding
Conditions: read-out: Nucleotide state / ADP-VO4 (n = 5)

T1 sequence (Q9BE39 1-840): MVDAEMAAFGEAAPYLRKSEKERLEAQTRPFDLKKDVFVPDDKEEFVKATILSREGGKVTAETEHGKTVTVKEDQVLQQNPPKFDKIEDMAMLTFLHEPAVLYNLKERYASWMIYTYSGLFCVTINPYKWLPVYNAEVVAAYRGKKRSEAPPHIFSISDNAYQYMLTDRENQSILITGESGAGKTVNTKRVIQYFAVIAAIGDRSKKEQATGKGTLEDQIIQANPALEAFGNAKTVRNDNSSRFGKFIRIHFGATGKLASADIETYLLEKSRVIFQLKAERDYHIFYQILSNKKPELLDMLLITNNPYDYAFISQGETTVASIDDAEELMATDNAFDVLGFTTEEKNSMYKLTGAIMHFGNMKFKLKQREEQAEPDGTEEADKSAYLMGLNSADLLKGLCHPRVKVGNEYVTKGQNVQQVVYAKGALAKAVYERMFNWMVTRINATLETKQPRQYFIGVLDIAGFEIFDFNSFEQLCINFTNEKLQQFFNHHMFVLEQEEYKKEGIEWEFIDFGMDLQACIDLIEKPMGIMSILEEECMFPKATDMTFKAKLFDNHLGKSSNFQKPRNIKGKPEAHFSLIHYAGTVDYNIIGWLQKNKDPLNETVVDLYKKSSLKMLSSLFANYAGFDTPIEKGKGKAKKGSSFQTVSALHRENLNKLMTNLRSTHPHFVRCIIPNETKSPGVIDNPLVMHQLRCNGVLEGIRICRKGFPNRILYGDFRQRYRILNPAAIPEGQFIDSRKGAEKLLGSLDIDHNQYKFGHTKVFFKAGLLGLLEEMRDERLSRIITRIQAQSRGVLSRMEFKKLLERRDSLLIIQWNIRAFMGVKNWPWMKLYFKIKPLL
T1 sequence (P85100 2-199 partner): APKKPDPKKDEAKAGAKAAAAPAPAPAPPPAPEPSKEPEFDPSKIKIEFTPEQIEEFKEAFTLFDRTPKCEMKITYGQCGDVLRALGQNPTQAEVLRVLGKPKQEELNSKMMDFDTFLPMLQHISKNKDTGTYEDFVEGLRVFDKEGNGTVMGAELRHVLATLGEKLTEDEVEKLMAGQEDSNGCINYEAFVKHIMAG

Kd: 290 ± 40 nM
SMILES: COC(=O)N1CCN(Cc2cccc(NC(=O)Nc3ccc(C)nc3)c2F)CC1 [OM, Omecamtiv mecarbil]
